Reference: PMC6045597, “Probiotics in human gut microbiota can degrade host glycosaminoglycans” (Scientific Reports, 2018)

Experiments:
Assay in all cases: coupled NADH oxidation at […] nm
Type in all cases: biochemical
KduI = target: T1, KduI (Lacticaseibacillus rhamnosus, UniProt C2JUP1); details: isomerase coupled with reductase DhuD or KduD; DHU prepared from unsaturated chondroitin disaccharide (6-sulfate) with UGL
T1 construct: recombinant, expressed in E. coli, purified to homogeneity; encoded in GAG genetic cluster
T1 sequence (C2JUP1 1-281): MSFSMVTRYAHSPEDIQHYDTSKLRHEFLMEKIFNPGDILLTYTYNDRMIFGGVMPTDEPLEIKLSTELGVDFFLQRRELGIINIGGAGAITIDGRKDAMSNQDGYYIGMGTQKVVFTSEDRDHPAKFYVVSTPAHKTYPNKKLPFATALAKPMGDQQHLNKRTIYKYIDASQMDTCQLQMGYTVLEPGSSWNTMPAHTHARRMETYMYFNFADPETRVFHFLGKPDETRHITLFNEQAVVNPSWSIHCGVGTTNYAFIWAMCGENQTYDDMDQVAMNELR

DhuI = target: T2, DhuI (Streptococcus agalactiae, UniProt Q8DXE6); details: reference isomerase, coupled with reductase DhuD or KduD; DHU prepared with UGL
T2 construct: gene SAG1905; purified protein
T2 sequence (Q8DXE6 1-212): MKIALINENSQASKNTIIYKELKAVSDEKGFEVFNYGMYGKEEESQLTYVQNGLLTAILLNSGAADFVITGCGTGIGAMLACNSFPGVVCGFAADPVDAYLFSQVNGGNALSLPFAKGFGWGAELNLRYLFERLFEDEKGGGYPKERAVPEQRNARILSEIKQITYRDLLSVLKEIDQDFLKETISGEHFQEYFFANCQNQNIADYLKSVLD

KduD = target: T3, KduD (Lacticaseibacillus rhamnosus, UniProt A0A0E3CKR8); details: DK-II formed in situ from DHU by KduI or DhuI
T3 construct: recombinant, expressed in E. coli, purified to homogeneity; encoded in GAG genetic cluster
T3 sequence (A0A0E3CKR8 23-274): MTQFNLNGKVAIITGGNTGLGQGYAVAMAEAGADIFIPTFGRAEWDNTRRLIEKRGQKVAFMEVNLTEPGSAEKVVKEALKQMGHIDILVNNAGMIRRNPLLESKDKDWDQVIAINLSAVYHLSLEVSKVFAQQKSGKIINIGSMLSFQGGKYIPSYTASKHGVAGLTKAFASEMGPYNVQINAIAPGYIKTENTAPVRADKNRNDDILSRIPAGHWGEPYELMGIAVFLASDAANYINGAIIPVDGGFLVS

DhuD = target: T4, DhuD (Streptococcus agalactiae, UniProt Q8E370); details: reference reductase, DK-II formed in situ from DHU by DhuI or KduI
T4 construct: gene gbs1891; purified protein
T4 sequence (Q8E370 1-270): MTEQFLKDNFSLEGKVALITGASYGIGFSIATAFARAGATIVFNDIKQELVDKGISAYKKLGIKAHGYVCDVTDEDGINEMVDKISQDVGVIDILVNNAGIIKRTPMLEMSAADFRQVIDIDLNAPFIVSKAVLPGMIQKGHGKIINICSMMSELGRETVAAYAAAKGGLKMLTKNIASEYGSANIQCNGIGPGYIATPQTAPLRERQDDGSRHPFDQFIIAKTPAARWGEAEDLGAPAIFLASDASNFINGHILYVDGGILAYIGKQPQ

Structure (SMILES) | coupled NADH oxidation at 340 nm (KduI) | coupled NADH oxidation at 340 nm (DhuI) | coupled NADH oxidation at 340 nm (KduD) | coupled NADH oxidation at 340 nm (DhuD)
O=C[C@H](O)[C@@H](O)CC(=O)C(=O)O [DHU, 4-deoxy-l-threo-5-hexosulose-uronic acid] | KduI catalyses the isomerase reaction from DHU to DK-II | successive reaction of isomerase (DhuI or KduI) and reductase (DhuD or KduD) |  | 
O=C(O)C(=O)C[C@H](O)C(=O)CO [DK-II, 3-deoxy-d-glycero-2,5-hexodiulosonic acid] |  |  | DK-II, which is further reduced to KDG by NADH-dependent reductase KduD | successive reaction of isomerase (DhuI or KduI) and reductase (DhuD or KduD)
NC(=O)C1=CN([C@@H]2O[C@H](COP(=O)(O)OP(=O)(O)OC[C@H]3O[C@@H](n4cnc5c(N)ncnc54)[C@H](O)[C@@H]3O)[C@@H](O)[C@H]2O)C=CC1 [NADH] |  |  | further reduced to KDG by NADH-dependent reductase KduD | 
